This note sets out measurements from patent US8178543B2, “Bi- and tricyclic fused pyrimidines as tyrosine kinase inhibitors” (Takeda Pharmaceutical Company Limited, priority 2004, dated 2012).

Assay [1] concerns human breast cancer cell BT-474. Nature of the assay: Inhibitory action on breast cancer cell BT-474 proliferation in vitro. In kind it is cell-based. The settings on record: 120 h, BT-474 cells, cultured 5 days, SRB staining. The method, then:
A suspension of human breast cancer cell BT-474 (100 μl (6,000 cells)) were sown to a 96-well microplate and cultured in an incubator (37° C., 5% carbon dioxide). On the following day, 100 μl of a solution of each test compound, which was previously diluted 2-fold, was added, and the cells were cultured for 5 days. After the culture medium containing the test compound was removed, the cells were washed and fixed with 50% trichloroacetic acid, after which a 0.4% (w/v) SRB solution (dissolved in 1% acetic acid) was added to fix and stain the cell protein (Skehan et al., Journal of the National Cancer Institute, Vol. 82, pp. 1107-1112, 1990). After washing with a 1% acetic acid solution, 100 μl of an extract (10 mM Tris solution) was added to extract the pigment, and absorbance was measured at an absorption wavelength of 550 nm to quantify the amount of cells as protein content. Taking as 100% the protein content for the control group, which received no test compound solution, the ratio of the residual protein content for each treatment group was determined, and the compound concentration required to achieve 50% suppression of the residual cell content relative to the control (IC50 value) was calculated.
(In SRB staining, fixed cells bind dye roughly in proportion to their protein.)

Assay [2] addresses T1, EGF receptor intracellular domain protein (Homo sapiens, UniProt P00533).
T1 construct: encoding EGF receptor intracellular domain region, so that the protein contains an N-terminal Flag tag; made in house; host or cells: SF-21 insect cells, recombinant baculovirus BAC-EGFR
Nature of the assay: Determination of EGF receptor kinase inhibitory activity. In kind it is biochemical. The following applies: 1.0 μM test compound; biotinyl-poly-Glu:Tyr (4:1), AlphaScreen, 25° C., 10 min; read-out: EGF receptor kinase Inhibitory rate (%) at 1.0 μM. The method, then: Human EGF receptor gene was cloned by RT-PCR using total RNA prepared from A431 cells as a template. The primer for RT-PCR was prepared from nucleotide sequence (Genbank Accession XM—167493) information of EGF receptor gene by adding a nucleotide sequence encoding flag peptide and a restriction enzyme recognition sequence to a nucleotide sequence (2182-3810 of Genbank Accession XM—167493) encoding EGF receptor intracellular domain region, so that the protein contains an N-terminal Flag tag. The primer nucleotide sequence is shown below.
The RT reaction was conducted using SuperScript First-Strand Synthesis System for RT-PCR (Invitrogen) and the PCR reaction was conducted using a KOD-plus kit (TOYOBO). The obtained PCR product was electrophoresed on agarose gel (1%), the DNA fragment amplified by PCR was recovered from the gel, and then digested with restriction enzymes Sal I and Sph I. The DNA treated with the restriction enzymes was electrophoresed on agarose gel (1%), and the obtained DNA fragment was recovered and ligated to plasmid pFASTBAC1 (Invitrogen) digested with restriction enzymes Sal I and Sph I to give expression plasmid pFB-EGFR. The nucleotide sequence of insertion fragment was confirmed and found to be identical with the nucleotide sequence (2182-3810 of Genbank Accession XM—167493) of EGFR intracellular domain. Furthermore, using BAC-TO-BAC Baculovirus Expression System (Invitrogen), virus stock BAC-EGFR of recombinant baculovirus was prepared.
SF-21 cells were sown at 1×10^6 cells/mL to Sf-900II SFM medium (1 L, Invitrogen) containing 10% fetal bovine serum (trace), 50 mg/L gentamicin (Invitrogen) and 0.1% Pluronic F-68 (Invitrogen), and shaking culture was performed using a 2 L volume Erlenmeyer flask at 27° C., 100 rpm. After culturing for 24 hrs, recombinant baculovirus BAC-EGFR (13.4 mL) was added, and the mixture was further cultured for 3 days. The culture medium was centrifuged at 2,000 rpm for 5 min. to give virus-infected cells. The infected cells were washed with a phosphate buffered saline (Invitrogen), centrifuged under the same conditions, and the cells were preserved at −80° C. The cryopreserved cells were thawed in ice, suspended in buffer A (50 mM Tris buffer (30 mL, pH7.4) containing 20% glycerol, 0.15 M NaCl) supplemented with Complete Protease Inhibitor (Boehringer), and ruptured 3 times with a Polytron homogenizer (Kinematica) at 20,000 rpm for 30 sec. The ruptured medium was clarified by centrifugation at 40,000 rpm for 30 min. and filtered with a 0.45 μm filter. The filtrate was passed through a column packed with Anti-FLAG M2 Affinity Gel (4 mL, Sigma) at a flow rate of about 0.5 mL/min. The column was washed with buffer A, and eluted with buffer A containing 100 μg/mL of FLAG peptide. The eluate was concentrated with Vivaspin 20 (Vivascience) having a molecular weight cut off of 30K. The buffer of this concentrate was exchanged using NAPE 25 column (Amersham Bioscience) equilibrated with buffer A. The fractions containing EGF receptor intracellular domain protein were collected, glycerol was added to the final concentration of 50% and cryopreserved at −80° C.
A test compound dissolved in dimethyl sulfoxide (DMSO) was diluted with a buffer (50 mM Tris-HCl (pH 7.5), 5 mM MgCl2, 5 mM MnCl2, 2 mM dithiothreitol, 0.01% Tween-20). To this compound solution (5 μL) was added a buffer (10 μL) containing 250 ng/mL of EGF receptor intracellular domain protein and 250 ng/mL of biotin labeled polypeptide biotinyl-poly-Glu:Tyr (4:1) (CIS bio International). […]

T1 sequence (P00533 669-1210 limits assumed): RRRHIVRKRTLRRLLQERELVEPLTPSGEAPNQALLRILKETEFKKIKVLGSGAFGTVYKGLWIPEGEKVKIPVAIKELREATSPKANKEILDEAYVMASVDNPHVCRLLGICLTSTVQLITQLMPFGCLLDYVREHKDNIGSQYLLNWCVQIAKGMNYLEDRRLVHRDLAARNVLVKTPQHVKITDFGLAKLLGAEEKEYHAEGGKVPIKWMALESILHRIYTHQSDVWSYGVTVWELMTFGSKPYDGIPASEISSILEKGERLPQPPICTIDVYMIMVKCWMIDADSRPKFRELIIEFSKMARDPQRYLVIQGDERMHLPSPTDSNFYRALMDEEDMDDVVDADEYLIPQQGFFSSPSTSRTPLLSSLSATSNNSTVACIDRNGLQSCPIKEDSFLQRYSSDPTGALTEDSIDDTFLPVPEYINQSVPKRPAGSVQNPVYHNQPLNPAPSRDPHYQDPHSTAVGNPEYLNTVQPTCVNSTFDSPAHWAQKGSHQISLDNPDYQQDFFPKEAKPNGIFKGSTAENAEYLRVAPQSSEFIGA

The term IC50 denotes the midpoint of a concentration-inhibition curve. A high value points to weaker potency in that assay. In turn, `CN(C)C/C=C/C(=O)NCc1cc2ncnc(Nc3ccc(OCc4cccc(F)c4)c(Cl)c3)c2[nH]1` [Example 82, (2E)-N-{[4-({3-chloro-4-[(3-fluorobenzyl)oxy]phenyl}amino)-5H-pyrrolo[3,2-d]pyrimidin-6-yl]methyl}-4-(dimethylamino)but-2-enamide] had a concentration for half-maximal inhibition (IC50) in assay [1] of under 100 nM. As to `CN(C)C/C=C/C(=O)NC/C=C/c1cc2ncnc(Nc3ccc(OCc4cccc(F)c4)c(Cl)c3)c2[nH]1` [Example 92, (2E)-N-{(2E)-3-[4-({3-chloro-4-[(3-fluorobenzyl)oxy]phenyl}amino)-5H-pyrrolo[3,2-d]pyrimidin-6-yl]prop-2-enyl}-4-(dimethylamino)but-2-enamide], the inhibition at 1 µM in assay [2] was 98%. Also, in assay [1], the IC50 was under 100 nM.

With `CC(C)(C(=O)NCCn1ccc2ncnc(Nc3ccc(Oc4cccc(C(F)(F)F)c4)c(Cl)c3)c21)S(C)(=O)=O` [Example 169, N-{2-[4-({3-chloro-4-[3-(trifluoromethyl)phenoxy]phenyl}amino)-5H-pyrrolo[3,2-d]pyrimidin-5-yl]ethyl}-2-methyl-2-(methylsulfonyl)propanamide], in assay [1], the IC50 is under 100 nM. Still for that read-out and setting: in the case of `CC(C)(C)S(=O)(=O)CCOCCn1ccc2ncnc(Nc3ccc(Oc4cccc(C(F)(F)F)c4)c(Cl)c3)c21` [Example 176, 5-{2-[2-(tert-butylsulfonyl)ethoxy]ethyl}-N-{3-chloro-4-[3-(trifluoromethyl)phenoxy]phenyl}-5H-pyrrolo[3,2-d]pyrimidin-4-amine] it was under 100 nM.
